Laboratory results reported in ChEMBL document CHEMBL4007419, “Discovery of hyaluronidase inhibitors from natural products and their mechanistic characterization under DMSO-perturbed assay conditions” (Bioorg Med Chem Lett, 2017).
Activity calls are given as the source filed them. No cut-off for these calls is given here.

Experiments:
[1] = Inhibition of CaCl2 activated hyaluronidase (unknown origin) using hyaluronic acid as substrate preincubated for 20 mins followed by substrate addition measured after 10 mins in presence of Triton-X-100 by colorimetric method; design: species or system Homo sapiens
[2] = Inhibition of CaCl2 activated hyaluronidase (unknown origin) using hyaluronic acid as substrate preincubated for 20 mins followed by substrate addition measured after 10 mins by colorimetric method; design: species or system Homo sapiens
Homo sapiens [3] = organism: Homo sapiens; assay: Inhibition of CaCl2 activated hyaluronidase (unknown origin) up to 400 uM using hyaluronic acid as substrate preincubated for 20 mins followed by substrate addition measured after 10 mins in presence of up to 15% DMSO by colorimetric method
[4] = Inhibition of hyaluronidase (unknown origin) using hyaluronic acid as substrate preincubated for 20 mins followed by CaCl2 activation for 20 mins and subsequent substrate addition measured after 10 mins by colorimetric method; design: species or system Homo sapiens
[5] = Inhibition of hyaluronidase (unknown origin) using hyaluronic acid as substrate preincubated for 20 mins followed by substrate addition measured after 40 mins by colorimetric method; design: species or system Homo sapiens
Homo sapiens [6] = organism: Homo sapiens; assay: Ratio of IC50 for CaCl2 activated hyaluronidase (unknown origin) to IC50 for hyaluronidase (unknown origin) using hyaluronic acid as substrate preincubated for 20 mins followed by CaCl2 activation
Homo sapiens [7] = organism: Homo sapiens; assay: Inhibition of CaCl2 activated hyaluronidase (unknown origin) up to 3000 uM using hyaluronic acid as substrate preincubated for 20 mins followed by substrate addition measured after 10 mins in presence of up to 21% DMSO by colorimetric method
Homo sapiens [8] = organism: Homo sapiens; assay: Inhibition of CaCl2 activated hyaluronidase (unknown origin) up to 4000 uM using hyaluronic acid as substrate preincubated for 20 mins followed by substrate addition measured after 10 mins in presence of up to 20% DMSO by colorimetric method
[9] = Inhibition of CaCl2 activated hyaluronidase (unknown origin) using hyaluronic acid as substrate preincubated for 20 mins followed by substrate addition measured after 10 mins in presence of dithiothreitol by colorimetric method; design: species or system Homo sapiens
Homo sapiens [10] = organism: Homo sapiens; assay: Non-competitive inhibition of hyaluronidase (unknown origin) up to 1000 um using hyaluronic acid as substrate preincubated for 20 mins followed by substrate addition measured after 10 mins by Lineweaver-Burk plot analysis

Which IC50 [1] does the source give for CC1(C)CC[C@]2(C(=O)O[C@@H]3O[C@H](CO)[C@@H](O)[C@H](O)[C@H]3O)CC[C@]3(C)C(=CC[C@@H]4[C@@]5(C)CC[C@H](O[C@@H]6O[C@H](C(=O)O)[C@@H](O[C@@H]7O[C@@H](CO)[C@H](O)[C@H]7O)[C@H](O)[C@H]6O)C(C)(C)[C@@H]5CC[C@]43C)[C@@H]2C1 here?
Its IC50 is 190 µM.

And the IC50 [2]?
Its IC50 is 80 µM.

What about the inhibition (Homo sapiens [3]) of the same compound?
The inhibition was “inactive”.

What about the IC50 [4] of the same compound?
The IC50 was 30 µM.

And the IC50 [5]?
The IC50 was 24 µM.

What about the Ratio IC50 (Homo sapiens [6]) of the same compound?
The Ratio IC50 was 2.5.

For O=C(O[C@@H]1Cc2c(O)cc(O)cc2O[C@@H]1c1cc(O)c(O)c(O)c1)c1cc(O)c(O)c(O)c1, which inhibition (Homo sapiens [7]) is on record?
Its inhibition is “Active”.

With Oc1cc(O)c2c(c1)O[C@H](c1ccc(O)c(O)c1)[C@@H](O)C2 as the compound, how does the inhibition (Homo sapiens [8]) read?
Its inhibition is “Active”.

Which IC50 [5] does the source give for Oc1cc(O)c2c(c1)O[C@@H](c1ccc(O)c(O)c1)[C@H](O)C2 [(-)-CATECHIN] here?
The IC50 was 1100 µM.

With Oc1cc(O)c2c(c1)O[C@H](c1ccc(O)c(O)c1)[C@H](O)C2 [(-)-EPICATECHIN] as the compound, how does the IC50 [1] read?
Its IC50 is 734 µM.

And the IC50 [9]?
Its IC50 is 806 µM.

What about the IC50 [2] of the same compound?
The IC50 was 789 µM.

What about the inhibition (Homo sapiens [10]) of the same compound?
Its inhibition is “Active”.

And the IC50 [4]?
Its IC50 is 685 µM.

What about the IC50 [5] of the same compound?
The IC50 was 804 µM.

And the inhibition (Homo sapiens [7])?
Its inhibition is “Active”.

With O=C(O)[C@H]1O[C@@H](Oc2cc3oc(-c4ccccc4)cc(=O)c3c(O)c2O)[C@H](O)[C@@H](O)[C@@H]1O [BAICALIN] as the compound, how does the IC50 [5] read?
The IC50 was 506 µM.

Which IC50 [5] does the source give for CC1(C)CC[C@]2(C(=O)O[C@@H]3O[C@H](CO)[C@@H](O)[C@H](O)[C@H]3O)CC[C@]3(C)C(=CC[C@@H]4[C@@]5(C)CC[C@H](O[C@@H]6O[C@H](C(=O)O)[C@@H](O)[C@H](O)[C@H]6O[C@@H]6O[C@H](CO)[C@@H](O)[C@H](O)[C@H]6O)C(C)(C)[C@@H]5CC[C@]43C)[C@@H]2C1 [GINSENOSIDE R0] here?
Its IC50 is 34 µM.

Which IC50 [5] does the source give for CC1(C)[C@@H](O[C@H]2O[C@H](C(=O)O)[C@@H](O)[C@H](O)[C@H]2O[C@@H]2O[C@H](C(=O)O)[C@@H](O)[C@H](O)[C@H]2O)CC[C@]2(C)[C@H]3C(=O)C=C4[C@@H]5C[C@@](C)(C(=O)O)CC[C@]5(C)CC[C@@]4(C)[C@]3(C)CC[C@@H]12 [GLYCYRRHIZIN] here?
The IC50 was 8.5 µM.
